Twelve compounds from patent publication US11104690B2, “Indazole derivatives useful as inhibitors of diacylglyceride O-acyltransferase 2” (Merck Sharp & Dohme Corp., priority 2016, dated 2021) can be followed below.

Where “and” joins values, the source holds several entries; their conditions need not be identical. Equal values may be shown once.

Human DGAT2, sequence (Q96PD7 whole entry): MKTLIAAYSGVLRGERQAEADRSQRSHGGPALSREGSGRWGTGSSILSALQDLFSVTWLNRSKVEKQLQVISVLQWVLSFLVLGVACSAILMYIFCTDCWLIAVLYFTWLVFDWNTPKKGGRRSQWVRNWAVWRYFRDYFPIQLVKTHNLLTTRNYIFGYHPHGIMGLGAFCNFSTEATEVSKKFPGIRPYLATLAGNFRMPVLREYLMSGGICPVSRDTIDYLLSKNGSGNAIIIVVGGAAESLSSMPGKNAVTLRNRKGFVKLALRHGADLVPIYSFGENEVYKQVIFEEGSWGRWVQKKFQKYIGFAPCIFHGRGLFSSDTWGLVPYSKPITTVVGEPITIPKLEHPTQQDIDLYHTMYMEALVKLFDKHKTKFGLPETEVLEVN

The assay concerns the target Human DGAT2 (Homo sapiens (Human), UniProt Q96PD7). Briefly: DGAT2 Enzymatic Activity Assay (triolein formation, LC/MS/MS). The format is biochemical. The settings on record: hDGAT2 Sf-9 membrane prep; 25 μM diolein, 10 μM oleoyl-CoA; room temperature. As to the method:
Sf-9 insect cells were maintained in Grace's insect cell culture medium with 10% heated-inactivated fetal bovine serum, 1% Pluronic F-68 and 0.14 μg/m Kanamycine sulfate in Erlenmeyer flasks at 28° C. in a shaker incubator. After infection with untagged hDGAT2 baculovirus at multiplicity of infection (MOI) 0.1 for 48 hours, cells were harvested. Cell pellets were suspended in buffer containing 10 mM Tris-HC (pH 7.5), 1 mM EDTA (pH 8.0), 250 mM sucrose and Complete Protease Inhibitor Cocktail (Roche Diagnostics Corp., Indianapolis, Ill.), and sonicated on ice. Membrane fractions were isolated by ultracentrifugation (100,000×g pellet), resuspended in the same buffer, and frozen (−80° C.) for later use. The protein concentration was determined with the BCA Protein Assay kit (Pierce Biotechnology Inc., Rockford, Ill.). Expression of protein levels was analyzed by immunoblotting with goat polyclonal DGAT2 antibody C-15 and donkey anti-goat IgG HRP (Santa Cruz Biotechnology, Inc., Santa Cruz, Calif.) followed by detection with ECL reagent (GE Healthcare, Piscataway, N.J.).
LC/MS/MS analyses were performed using Thermal Fisher's LX4-TSQ Vantage system. This system consists of an Agilent binary high-performance liquid chromatography (HPLC) pumps and a TSQ Vantage triple quadrupole MS/MS instrument. For each sample, 2 μL samples from the top organic layer of in-plate liquid-liquid extraction were injected onto a Thermo Betabasic C4 column (2.1 mm×20 mm, 5 μm particle size). The samples were then eluted using the following conditions; mobile phase: MeOH/water with 0.1% ammonium format=92/8 (v/v), flow rate: 1 mL/min, temperature: 25 C. Data was acquired in positive mode using a heated electrospray ionization (HESI) interface. The operational parameters for the TSQ Vantage MS/MS instrument were a spray voltage of 3000 V, capillary temperature of 280° C., vaporizer temperature 400° C., shealth gas 60 arbitrary unit, Aux gas 40 arbitrary units, S-lens 113 and collision gas 0.16 Pascals. […] (SRM) chromatograms of triolein (Q1: 902.9>Q3:602.3) and internal standard ([…]) were collected for 40 sec. The peak area was integrated by Xcalibur Quan software. The ratio between the triolein generated in the reaction and spiked in internal standard was used to generate percentage inhibition and IC50 values. Compound percentage inhibition was calculated by the following formula: Inhibition %=1−[(compound response−low control)/(high control−low control)]×100%. Potent compounds were titrated and IC50 were calculated by 4 parameter sigmoidal curve fitting formula.
DGAT2 activity was determined by measuring the amount of enzymatic product triolein (1,2,3-Tri(cis-9-octadecenoyl)glycerol) using the membrane prep mentioned above. The assay was carried out in deep well 384 plates in a final volume of 40 μL at room temperature. The assay mixture contained the following: assay buffer (100 mM Tris.Cl, pH 7.0, 20 mM MgCl2, 5% ethanol), 25 μM of diolein, 10 μM of oleoyl-CoA and 10 ng/μL of DGAT2 membrane.
Usually IC50 stands for the midpoint of a concentration-inhibition curve. Low readings indicate inhibition by little substance, high ones a need for much substance. In turn, `CC(C)[C@H](NC(=O)c1ccc2c(-c3ccccc3Cl)nn(-c3ccc(F)cc3)c2c1)C(N)=O` [Example 95, N-[(1S)-1-carbamoyl-2-methylpropyl]-3-(2-chlorophenyl)-1-(4-fluorophenyl)-1H-indazole-6-carboxamide] returned an IC50 of 606 nM.

With `O=C(NC1COC1)c1ccc2c(-c3ccccc3Cl)nn(-c3ccc(F)cc3)c2c1` [Example 21, 3-(2-chlorophenyl)-1-(4-fluorophenyl)-N-oxetan-3-yl-1H-indazole-6-carboxamide], the midpoint of inhibition, the IC50, lay at 873 nM.

The compound `Cc1ccc(-n2nc(-c3ccccc3Cl)c3ccc(C(=O)NC4(C)CCS(=O)(=O)C4)cc32)nc1` (racemic) [Example 185, 3-(2-chlroophenyl)-N-(3-methyl-1,1-dioxidotetrahydrothiophen-3-yl)-1-(5-methylpyridin-2-yl)-1H-indazole-6-carboxamide] displayed an IC50 of 9.5 nM.

Consider `O=C(NC1CCS(=O)(=O)C1)c1ccc2c(-c3ccccc3Cl)nn(-c3ccc(F)cc3)c2c1` (single isomer, unassigned) [Example 2-A], for which it took 12 nM to reach half-maximal inhibition (IC50).

In the case of `CC1(NC(=O)c2ccc3c(-c4ccc5c(c4)OCO5)nn(-c4ccc(F)cc4)c3c2)CCS(=O)(=O)C1` (single isomer, unassigned) [Example 139-A, 3-(1,3-benzodioxol-5-yl)-1-(4-fluorophenyl)-N-(3-methyl-1,1-dioxidotetrahydrothiophen-3-yl)-1H-indazole-6-carboxamide], the IC50 was 229 nM and 158 nM.

For `CC1(NC(=O)c2ccc3c(-c4ccccc4Cl)nn(-c4nnc(C(F)(F)F)s4)c3c2)CCS(=O)(=O)C1` (racemic) [Example 182, 3-(2-chlorophenyl)-N-(3-methyl-1,1-dioxidotetrahydrothiophen-3-yl)-1-[5-(trifluoromethyl)-1,3,4-thiadiazol-2-yl]-1H-indazole-6-carboxamide], half-maximal inhibition (IC50) was put at 371 nM.

Take `CC1(NC(=O)c2ccc3c(-c4cccc(C5CC5)c4)nn(-c4ccc(F)cn4)c3c2)CCS(=O)(=O)C1` (single isomer, unassigned) [Example 125-B, 3-(3-cyclopropylphenyl)-1-(5-fluoropyridin-2-yl)-N-(3-methyl-1,1-dioxidotetrahydrothiophen-3-yl)-1H-indazole-6-carboxamide]: the IC50 was 3 nM.

`O=C(NC1CCS(=O)(=O)C1)c1ccc2c(-c3cccc(OC(F)F)c3)nn(-c3ccc(F)cc3)c2c1` (single isomer, unassigned) [Example 136-A, 3-[3-(difluoromethoxy)phenyl]-N-(1,1-dioxidotetrahydrothiophen-3-yl)-1-(4-fluorophenyl)-1H-indazole-6-carboxamide] returned an IC50 of 1.4 nM.

Take `O=C(NC1CCOCC1)c1ccc2c(-c3ccccc3Cl)nn(-c3ccc(F)cc3)c2c1` [Example 86, 3-(2-chlorophenyl)-1-(4-fluorophenyl)-N-(tetrahydro-2H-pyran-4-yl)-1H-indazole-6-carboxamide]: the midpoint of inhibition, the IC50, lay at 505 nM.

For the compound `O=C(NC1CCS(=O)(=O)C1)c1ccc2c(-c3ccc[n+]([O-])c3)nn(-c3ccc(F)cc3)c2c1` (single isomer, unassigned) [Example 166-A, 3-(6-((1,1-dioxidotetrahydrothiophen-3-yl)carbamoyl)-1-(4-fluorophenyl)-1H-indazol-3-yl)pyridine 1-oxide], it took 843 nM to reach half-maximal inhibition (IC50).

Compound `O=C(N[C@H](CO)Cc1ccccc1)c1ccc2c(-c3ccccc3Cl)nn(-c3ccc(F)cc3)c2c1` [Example 110, N-[(1S)-1-benzyl-2-hydroxyethyl]-3-(2-chlorophenyl)-1-(4-fluorophenyl)-1H-indazole-6-carboxamide] returned an IC50 of 134 nM.

Consider `COc1ncc(Cl)cc1-c1nn(-c2ccc(F)cc2)c2cc(C(=O)NC3(C)CCS(=O)(=O)C3)ccc12` (single isomer, unassigned) [Example 142-A, 3-(5-chloro-2-methoxypyridin-3-yl)-1-(4-fluorophenyl)-N-(3-methyl-1,1-dioxidotetrahydrothiophen-3-yl)-1H-indazole-6-carboxamide], for which 430 nM corresponded to half-maximal inhibition (IC50).
